# Tested on: oxazolone-induced colitis
# Assay: Mouse model of oxazolone-induced colitis
# Type: in vivo, BALB/C mice
# Settings: PO, 1, 3, and/or 10 mg/kg BID (doses up to 10 mg/kg BID)
# Experimental: Assay 7: Mouse Model of Oxazalone-Induced Colitis
# Oxazolone-induced colitis is an experimental model that has a histological resemblance to human ulcerative colitis (Heller et al. Immunology, 2002, 17, 629-638). Adult BALB/C mice from Harlan were used in the assay. On day 1, animals were lightly anesthetized with isoflurane and the hairs between the shoulder were carefully removed before oxazolone (4%, 150 μL, 4:1 acetone:olive oil formulation) or vehicle solution was slowly applied for skin sensitization. Seven days after skin sensitization, the mice were fasted overnight, anesthetized with isoflurane inhalation, and a 1 mL syringe equipped with a 3.5-F catheter, filled with oxazolone solution, was inserted carefully about 4 cm into the colon of the mouse. Following insertion, 50 μL of the oxazolone solution (1%, 1:1 ethanol:water formulation) was injected very slowly (over 30 sec using an injection pump) into the colon. The catheter was removed and the mice were held vertically (head down) for 2 min to ensure that the entire oxazolone solution remained inside the colon. Drug treatment (PO, BID or TID) or vehicle was initiated a day prior to the oxazolone intrarectal (IR) challenge. Two-day post oxazolone intrarectal challenge, the Disease Activity Index (DAI) was assessed by treatment-blinded experimenters for each mouse according to the criteria score: stool consistency score (0, normal; 2, loose; 4, diarrhea), gross bleeding score (0, absence; 2, blood tinged; 4, presence), and weight loss score (0, none; 1, 1%-5%; 2, 5%-10^%; 3, 10%-20%; 4, more than 20%); DAI=average of (stool consistency score+gross bleeding score+weight loss score).
# Selected compounds of the invention were tested in the assay. Efficacy in the model is evidenced by a decrease in DAI score as compared with the score from vehicle treated animals.
row,SMILES,DAI score as compared with vehicle treated animals
1,Cc1cc(Nc2cc3ncccc3c(N[C@@H]3C[C@H]4CCC[C@@H](C3)N4CC(=O)N(C)C)n2)n[nH]1 [Example 1-38],statistically significant decrease
2,"Cc1cc(Nc2cc3ncccc3c(N[C@@H]3C[C@H]4CC[C@@H](C3)N4CCF)n2)n[nH]1 [Example 2, N^5-((1R,3s,5S)-8-(2-fluoroethyl)-8-azabicyclo[3.2.1]octan-3-yl)-N^7-(5-methyl-1H-pyrazol-3-yl)-1,6-naphthyridine-5,7-diamine]",statistically significant decrease
3,CCC(C)C(=O)N1C2CCC1CC(Nc1nc(Nc3cc(C)[nH]n3)cc3ncccc13)C2 (centres unmarked) [Example 2-6],did not exhibit a statistically significant decrease
4,Cc1cc(Nc2cc3ncccc3c(NC3CC4CCCC(C3)N4C(=O)C(C)O)n2)n[nH]1 (centres unmarked) [Example 2-16],did not exhibit a statistically significant decrease
5,CCOCC(=O)N1[C@@H]2CCC[C@H]1C[C@H](Nc1nc(Nc3cc(C)[nH]n3)cc3ncccc13)C2 [Example 2-17],did not exhibit a statistically significant decrease
6,Cc1cc(Nc2cc3ncccc3c(N[C@@H]3C[C@H]4CCC[C@@H](C3)N4C(=O)C(C)(C)CO)n2)n[nH]1 [Example 2-22],did not exhibit a statistically significant decrease
7,Cc1cc(Nc2cc3ncccc3c(N[C@@H]3C[C@H]4CCC[C@@H](C3)N4C(=O)Cc3ccccc3)n2)n[nH]1 [Example 2-24],did not exhibit a statistically significant decrease
8,"Cc1cc(Nc2cc3ncccc3c(N[C@@H]3C[C@H]4CC[C@@H](C3)N4S(=O)(=O)c3cccnc3)n2)n[nH]1 [Example 3, N^7-(5-methyl-H-pyrazol-3-yl)-N-((1R,3s,5S)-8-(pyridin-3-ylsulfonyl)-8-azabicyclo[3.2.1]octan-3-yl)-1,6-naphthyridine-5,7-diamine]",statistically significant decrease
9,"Cc1cc(Nc2cc3ncccc3c(N[C@@H]3C[C@H]4CCC[C@@H](C3)N4C(=O)CN(C)C)n2)n[nH]1 [Example 4, 2-(Dimethylamino)-1-((1R,3s,5S)-3-((7-((5-methyl-1H-pyrazol-3-yl)amino)-1,6-naphthyridin-5-yl)amino)-9-azabicyclo[3.3.1]nonan-9-yl)ethan-1-one]",statistically significant decrease
10,Cc1cc(Nc2cc3ncccc3c(N[C@@H]3C[C@H]4CC[C@@H](C3)N4S(=O)(=O)CC(C)C)n2)n[nH]1 [Example 4-3],did not exhibit a statistically significant decrease
11,Cc1cc(Nc2cc3ncccc3c(N[C@@H]3C[C@H]4CC[C@@H](C3)N4S(=O)(=O)C3CC3)n2)n[nH]1 [Example 4-4],did not exhibit a statistically significant decrease
12,Cc1cc(Nc2cc3ncccc3c(N[C@@H]3C[C@H]4CC[C@@H](C3)N4S(=O)(=O)Cc3ccccc3)n2)n[nH]1 [Example 4-13],did not exhibit a statistically significant decrease
13,Cc1cc(Nc2cc3ncccc3c(N[C@@H]3C[C@H]4CCC[C@@H](C3)N4S(=O)(=O)C3CC3)n2)n[nH]1 [Example 4-18],did not exhibit a statistically significant decrease
14,COCCS(=O)(=O)N1[C@@H]2CCC[C@H]1C[C@H](Nc1nc(Nc3cc(C)[nH]n3)cc3ncccc13)C2 [Example 4-19],did not exhibit a statistically significant decrease
15,Cc1cc(Nc2cc3ncccc3c(N[C@@H]3C[C@H]4CCC[C@@H](C3)N4S(=O)(=O)CC3CC3)n2)n[nH]1 [Example 4-23],did not exhibit a statistically significant decrease
16,"Cc1cc(Nc2cc3ncccc3c(N[C@@H]3C[C@H]4CC[C@@H](C3)N4C(=O)C(F)F)n2)n[nH]1 [Example 5, 2,2-difluoro-1-((1R,3s,5S)-3-((7-((5-methyl-1H-pyrazol-3-yl)amino)-1,6-naphthyridin-5-yl)amino)-8-azabicyclo[3.2.1]octan-8-yl)ethan-1-one]",statistically significant decrease
17,Cc1cc(Nc2cc3nc(CO)ccc3c(N[C@@H]3C[C@H]4CC[C@@H](C3)N4CCC#N)n2)n[nH]1 [Example 5-11],did not exhibit a statistically significant decrease
18,"COCCS(=O)(=O)N1[C@@H]2CC[C@H]1C[C@H](Nc1nc(Nc3cc(C)[nH]n3)cc3ncccc13)C2 [Example 6, N^5-((1R,3s,5S)-8-((2-methoxyethyl)sulfonyl)-8-azabicyclo[3.2.1]octan-3-yl)-N^7-(5-methyl-1H-pyrazol-3-yl)-1,6-naphthyridine-5,7-diamine]",statistically significant decrease
19,"CCS(=O)(=O)N1[C@@H]2CC[C@H]1C[C@H](Nc1nc(Nc3cc(C)[nH]n3)cc3ncccc13)C2 [Example 7, N^5-((1R,3s,5S)-8-(ethylsulfonyl)-8-azabicyclo[3.2.1]octan-3-yl)-N^7-(5-methyl-1H-pyrazol-3-yl)-1,6-naphthyridine-5,7-diamine]",did not exhibit a statistically significant decrease
20,"Cc1cc(Nc2cc3ncccc3c(N[C@@H]3C[C@H]4CCC[C@@H](C3)N4S(=O)(=O)c3ccccc3)n2)n[nH]1 [Example 9, N-(5-methyl-1H-pyrazol-3-yl)-N-((1R,3s,5S)-9-(phenylsulfonyl)-9-azabicyclo[3.3.1]nonan-3-yl)-1,6-naphthyridine-5,7-diamine]",did not exhibit a statistically significant decrease
21,"Cc1cc(Nc2cc3ncccc3c(N[C@@H]3C[C@H]4CCC[C@@H](C3)N4S(=O)(=O)N3CC(C#N)C3)n2)n[nH]1 [Example 11, 1-(((1R,3s,5S)-3-((7-((5-methyl-1H-pyrazol-3-yl)amino)-1,6-naphthyridin-5-yl)amino)-9-azabicyclo[3.3.1]nonan-9-yl)sulfonyl)azetidine-3-carbonitrile]",did not exhibit a statistically significant decrease
22,"Cc1cc(Nc2cc3ncccc3c(N[C@@H]3C[C@H]4CC[C@@H](C3)N4S(=O)(=O)N3CC(C#N)C3)n2)n[nH]1 [Example 13, 1-(((1R,3s,5S)-3-((7-((5-methyl-1H-pyrazol-3-yl)amino)-1,6-naphthyridin-5-yl)amino)-8-azabicyclo[3.2.1]octan-8-yl)sulfonyl)azetidine-3-carbonitrile]",did not exhibit a statistically significant decrease

# Tested on: IL-4 induced STAT6 phosphorylation in THP-1 human monocytic cells
# Assay: not given
# Settings: not given
row,SMILES,THP-1 IL4 pIC50
1,Cc1cc(Nc2cc3ncccc3c(N[C@@H]3C[C@H]4CC[C@@H](C3)N4Cc3ccc(O)cc3)n2)n[nH]1 [Example 1-18],C (key: A represents a pEC50 value ≥7.5 (EC50≤32 nM); B represents a pEC50 value between 6.7 and 7.5 (EC50 between 200 nM and 32 nM); C represents a pEC50 value <6.7 (EC50>200 nM))
2,Cc1cc(Nc2cc3ncccc3c(N[C@@H]3C[C@H]4CC[C@@H](C3)N4C3CCCOC3=O)n2)n[nH]1 (some centres unmarked) [Example 1-28],C (key: A represents a pEC50 value ≥7.5 (EC50≤32 nM); B represents a pEC50 value between 6.7 and 7.5 (EC50 between 200 nM and 32 nM); C represents a pEC50 value <6.7 (EC50>200 nM))
3,Cc1cc(Nc2cc3ncccc3c(N[C@@H]3C[C@H]4CC[C@@H](C3)N4CC3COC(=O)O3)n2)n[nH]1 (some centres unmarked) [Example 1-30],B (key: A represents a pEC50 value ≥7.5 (EC50≤32 nM); B represents a pEC50 value between 6.7 and 7.5 (EC50 between 200 nM and 32 nM); C represents a pEC50 value <6.7 (EC50>200 nM))
4,Cc1cc(Nc2cc3ncccc3c(N[C@@H]3C[C@H]4CC[C@@H](C3)N4C(=O)c3ccccc3)n2)n[nH]1 [Example 2-12],B (key: A represents a pEC50 value ≥7.5 (EC50≤32 nM); B represents a pEC50 value between 6.7 and 7.5 (EC50 between 200 nM and 32 nM); C represents a pEC50 value <6.7 (EC50>200 nM))
5,Cc1cc(Nc2cc3ncccc3c(N[C@@H]3C[C@H]4CC[C@@H](C3)N4C(=O)c3ccncc3)n2)n[nH]1 [Example 2-13],B (key: A represents a pEC50 value ≥7.5 (EC50≤32 nM); B represents a pEC50 value between 6.7 and 7.5 (EC50 between 200 nM and 32 nM); C represents a pEC50 value <6.7 (EC50>200 nM))

# Same assay, conditions: THP-1 cells, IL-4 induced STAT6 phosphorylation
row,SMILES,THP-1 IL4 pIC50
1,Cc1cc(Nc2cc3ncccc3c(N[C@H]3C[C@H]4CCC[C@@H](C3)N4C3CCOC3=O)n2)n[nH]1 (some centres unmarked) [Example 1-52],B (B represents a pEC50 value between 6.7 and 7.5 (EC50 between 200 nM and 32 nM))
2,COC(=O)C1(C(=O)N2[C@@H]3CC[C@H]2C[C@H](Nc2nc(Nc4cc(C)[nH]n4)cc4ncccc24)C3)CC1 [Example 2-9],C (C represents a pEC50 value <6.7 (EC50>200 nM))

# Source: patent US11780852B2, “Methods for treating Crohn's disease using 3-((1R,3s,5S)-3-((7-((5-methyl-1H-pyrazol-3-yl)amino)-1,6-naphthyridin-5-yl)amino)-8-azabicyclo[3.2.1]octan-8-yl)propanenitrile” (priority 2015, dated 2023)
